The record followed here is patent publication US20210186999A1, “METHOD FOR TREATMENT OF CANCER” (National University of Ireland Galway, priority 2017, published 2021).

Test [1] has as its system nitric oxide (NO), prostaglandin E2 (PGE2), IL-10 in MLR supernatant. In words: ELISA and Griess assay of immunomodulatory molecules in supernatant of mixed lymphocyte reaction. The following applies: MSCs cultured with 100 μM inhibitor, FIGS. 4(a)-4(c). It counts as cell-based, BALB/c. On the procedure:
Sialic acid content was assayed using lectin coupled flow cytometry. Biotin labelled SNA-I and MAL-II were used to detect a 2-6 sialic acid and a 2-3 sialic acid respectively. Sialyltransferase inhibition was carried out using 100 μM of 3Fax-Peracetyl Neu5Ac. Cells were cultured in the presence of the inhibitor for two successive passages to ensure inhibition.
Both ELISA and the Griess assay were used to determine quantity of immunomodulatory molecules in the supernatant of mixed lymphocyte reaction experiments.

Test [2] concerns TNF-α+IL-1β treated MSCs co-cultured with activated T-cells. In words: MSC : T-cell co-culture in mixed lymphocyte reactions (MLRs), flow cytometry. In kind it is cell-based, BALB/c. The following applies: MSCs cultured with 100 μM inhibitor for two successive passages; MLR co-culture 96 hrs; FIGS. 3(a)-3(c). On the procedure:
Materials and Methods Four female BALB/c at approximately 5 to 7 weeks were euthanized and the femur and tibia was dissected and placed in a 50 ml tube with media or PBS. Using a forceps and scissors the bones were cleaned to remove muscles and snipped on both ends to plunge out the marrow into a Petri dish containing MSC medium. A 30G needle fitted on a 1 ml syringe was used to plunge out the marrow and repeated several times till the bones appeared white. The marrow was passed through a 40 μm sieve attached to a 50 ml tube and the sieve was washed twice with medium. Medium was changed, and a cell count was performed. 10 μl cells was mixed with 40 μl PBS and 10 μl 4% acetic acid and cell count was performed. Based on the count approximately 35-50 million cells were seeded per T175 cm flask or 1 animal per flask. After isolation and culturing the MSCs were extensively characterized in vitro before and after treatment with TNF-α+IL-1β.
Sialic acid content was assayed using lectin coupled flow cytometry. Biotin labelled SNA-I and MAL-II were used to detect a 2-6 sialic acid and a 2-3 sialic acid respectively. Sialyltransferase inhibition was carried out using 100 μM of 3Fax-Peracetyl Neu5Ac. […]
MSC and TNF-α+IL-1βMSC were co-cultured at different MSC: T-cell ratios for 96 hrs. T-cell proliferation, activation, death and differentiation were determined by flow cytometry.
For orientation: A flow cytometer gives signals particle by particle.

With `COC(=O)C1(OC(C)=O)OC(C(OC(C)=O)C(COC(C)=O)OC(C)=O)C(NC(C)=O)C(OC(C)=O)C1F` (stereo not drawn) [3Fax-Peracetyl Neu5Ac], in test [1], the “dependence of restored T-cell proliferation on NO, PGE2 and IL-10” value was “independent of nitric oxide (NO), prostaglandin E2 (PGE2), and IL-10”. In addition, in test [2], the “proliferation of T-cells (CD4+, CD8+) in co-culture with inhibitor-treated MSCs” value is listed as “restored proliferation of T-cells” and the “suppression of activated T-cells by TNF-α+IL-1β treated MSCs exposed to the sialyltransferase inhibitor” value is recorded as “not as effective at suppressing activated T-cells”.
